Test results taken from patent US20220160712A1, “METHODS OF TREATING RHEUMATOID ARTHRITIS AND FOR PREDICTING THE RESPONSE TO METHOTREXATE” (CHAN ZUCKERBERG BIOHUB, INC., priority 2020, published 2022).

Experiments:
[1] = test system: human gut microbiota; assay: MTX treatment of gnotobiotic mice colonized with human stool; 16S-seq and qPCR of gut microbiota; assay type: in vivo; conditions: Donor 3 mice, oral MTX 50 mg/kg with or without equimolar folic acid
[2] = test system: B. theta; assay: In vitro bacterial rescue study with folic acid; assay type: cell-based, Bacteroides thetaiotaomicron; conditions: in the presence and absence of MTX; folic acid 0-250 μg/ml
Protocol: (§1) As described in the ur in vitro bacterial growth studies, 48-hour overnight cultures were grown in an anaerobic chamber in liquid BHI+ for the following isolates: Bacteroides vulgatus, Bacteroides thetaiotaomicron, Clostridium innocuum and Clostridium symbiosum. Each subculture was diluted down to an OD600 of 0.08-0.1, which was then further diluted 100-fold, and then used to inoculate a 96-well microtiter plate with 2-fold serial dilutions of MTX (Sigma, Cat #M9929) concentrations ranging from 0-450 μg/ml (0-990 μM) along the columns (1-10) and 2-fold serial dilutions of folic acid (Fischer Scientific, BP25195) ranging from 0-250 μg/ml (0-566 μM) along the rows (A-H). Each plate included media and growth controls. […]
(§2) Growth parameters (carrying capacity, time to mid-exponential and growth rate) were calculated in R using GrowthCurveR (Sprouffske, K., and Wagner, A. (2016), BMC Bioinformatics 17, 1726) (v0.2.1). […] For rescue studies, as above, growth parameters (carrying capacity, time to mid-exponential, growth rate, and area under the curve) were calculated in R using GrowthCurveR (Sprouffske and Wagner, 2016) (v0.2.1). Four isolates were evaluated with varying sensitivity to MTX (B. thetaiotaomicron, B. vulgatus, C. innocuum and C. symbiosum). […] Growth curves at 9 concentrations of MTX tested against 7 concentrations of folic acid were measured. […]

[3] = test system: B. vulgatus; assay: In vitro bacterial rescue study with folic acid; assay type: cell-based, Bacteroides vulgatus; conditions: folic acid 0-250 μg/ml; MTX 0-450 μg/ml
Protocol: as §1, §2

[4] = test system: C. innocuum; assay: In vitro bacterial rescue study with folic acid; assay type: cell-based, Clostridium innocuum; conditions: folic acid 0-250 μg/ml; MTX 0-450 μg/ml
Protocol: as §1, §2

[5] = test system: C. symbiosum; assay: In vitro bacterial rescue study with folic acid; assay type: cell-based, Clostridium symbiosum; conditions: MTX resistant isolate; high doses of MTX
Protocol: as §1, §2

[6] = test system: B. vulgatus, B. thetaiotaomicron, C. innocuum, and C. symbiosum; assay: In vitro bacterial rescue study with leucovorin; assay type: cell-based

Row | Compound | rescue of the gut microbiota from MTX by co-administered folic acid (α- or β-diversity between groups) [1] | rescue of the gut microbiota from MTX by co-administered folic acid (α- or β-diversity between groups) ([1]; listed as Folic acid) | growth in response to folic acid [2] | dose-dependent increases in growth with folic acid [3] | dose-dependent increases in growth with folic acid [4] | effect of folic acid on MTX sensitivity [5] | effect of leucovorin on growth of the tested isolates ([6]; leucovorin 0-125 μg/ml (FIG. 4D and 4E)) | dose-dependent effects of leucovorin on growth in the presence of MTX ([6]; leucovorin 0-125 μg/ml, linear regression (FIG. 4F))
1 | Nc1nc2ncc(CNc3ccc(C(=O)N[C@@H](CCC(=O)O)C(=O)O)cc3)nc2c(=O)[nH]1 [folic acid] | Neither route nor rescue resulted in a significant difference | did not markedly rescue the gut microbiota | improved in a dose-dependent manner | only evident in the presence of MTX | only evident in the presence of MTX | sensitized to MTX |  | 
2 | Nc1nc2c(c(=O)[nH]1)N(C=O)C(CNc1ccc(C(=O)N[C@@H](CCC(=O)O)C(=O)O)cc1)CN2 (some centres unmarked) [leucovorin] |  |  |  |  |  |  | improved growth of 3 of the 4 tested isolates | did not have any significant dose-dependent effects
